# Molecular target: human P2X7 receptor (Homo sapiens, UniProt Q99572, R270H/Y155H)
# Assay: Evaluation of human P2X7 receptor inhibitory activity (Yo-Pro uptake, BzATP stimulation, FLIPR TETRA)
# Format: cell-based
# Details: 1321N1 cells stably expressing human P2X7 receptor; BzATP stimulation, Yo-Pro uptake; read-out: IC50 (antagonistic activity for the human P2X7 receptor)
# How it was run: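 1321N1 cells stably expressing human P2X7 (T606C/G952A SNP variant), in HBSS buffer pH 7.4-7.5 with Yo-Pro, stimulated with BzATP; compound added 8 min after agonist. Fluorescence followed for 20 min on FLIPR; max-minus-min change gave % inhibition, IC50 by logistic fit.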
row,Structure (SMILES),IC50
1,COc1cn(Cc2ccc(F)c(Cl)c2)c(Nc2cc(C)c(C)cc2C)nc1=O [Compound I-0358],160 nM
2,CCOc1cc(C)c(Nc2nc(=O)c(OC)cn2Cc2cc(F)cc(Cl)c2)cc1C [Compound I-0384],10 nM
3,COc1cn(Cc2ccc(F)c(Cl)c2)c(Nc2cccc3[nH]c(=O)ccc23)nc1=O [Compound I-0397],67 nM
4,COc1cn(Cc2ccc(F)c(Cl)c2)c(Nc2c(C)cc3oc(C)cc3c2C)nc1=O [Compound I-0833],39 nM
5,COc1cn(Cc2cc(F)c(F)c(F)c2)c(Oc2cc(-c3ncco3)ccc2C)nc1=O [Compound I-0942],230 nM
6,COc1ccc(C)c(Oc2cc(=O)c(OC)cn2Cc2ccc(F)c(Cl)c2)c1 [Compound I-0961],410 nM
7,COc1cn(Cc2cc(F)cc(F)c2)c(Nc2cc(C)c(OC(F)(F)F)cc2C)nc1=O [Compound I-0924],17 nM

# Same assay, conditions: 1321N1 cells stably expressing human P2X7 receptor; BzATP stimulation, Yo-Pro uptake; read-out: IC50 (antagonistic activity for the human P2X7 receptor), class symbol
row,Structure (SMILES),IC50
1,COc1cn(Cc2cccc(Cl)c2)c(Nc2cc3[nH]ncc3cc2C)nc1=O [Compound I-0490],< 10 nM
2,COc1cn(Cc2ccc(F)cc2)c(Nc2cccc(C(F)(F)F)c2Cl)nc1=O [Compound I-0038],10 to 100 nM
3,Cc1c(Cl)cccc1Nc1nc(=O)c(C(=O)NCC(F)(F)F)cn1Cc1ccccc1 [Compound I-0098],500 to 1000 nM
4,COc1cn(Cc2cc(Cl)cc(Cl)c2)c(Nc2cccc(Cl)c2C)nc1=O [Compound I-0317],100 to 500 nM
5,COc1cn(Cc2ccc(F)c(F)c2)c(Nc2cccc3[nH]c(C)cc23)nc1=O [Compound I-0488],10 to 100 nM
6,COc1cn(Cc2ccccc2)c(Nc2ccccc2Cl)nc1=O [Compound I-0060],500 to 1000 nM
7,COc1cc(C)c(Nc2nc(=O)c(F)cn2Cc2cccc(Cl)c2)cc1OC [Compound I-0308],< 10 nM
8,COc1ccc(Cl)c(Nc2nc(=O)c(OC)cn2Cc2ccc(F)c(Cl)c2)c1 [Compound I-0544],10 to 100 nM
9,COc1c(C)ccc(Nc2nc(=O)c(OC)cn2Cc2cc(F)cc(F)c2)c1C [Compound I-0540],< 10 nM
10,COc1cn(Cc2cccc(C)c2)c(Nc2cccc(Cl)c2C)nc1=O [Compound I-0044],10 to 100 nM
11,Cc1c(Cl)cccc1Nc1nc(=O)c(C(=O)O)cn1Cc1ccccc1 [Compound I-0018],100 to 500 nM
12,COc1cc(C)c(Nc2nc(=O)c(F)cn2Cc2cccc(Cl)c2)cc1C [Compound I-0348],< 10 nM
13,COc1cccc(Nc2nc(=O)c(OC)cn2Cc2cc(F)cc(Cl)c2)c1C [Compound I-0509],< 10 nM
14,COc1cc(C)c(Nc2nc(=O)c(OC)cn2Cc2ccc(F)cc2)cc1OC [Compound I-0275],10 to 100 nM
15,Cc1c(Cl)cccc1Nc1nc(=O)ccn1Cc1ccccc1 [Compound I-0009],< 10 nM
16,COc1cc(C)cc(Nc2nc(=O)c(OC)cn2Cc2ccc(F)c(Cl)c2)c1C [Compound I-0424],< 10 nM
17,COc1cn(Cc2ccccc2)c(Nc2cccc(CO)c2C)nc1=O [Compound I-0110],100 to 500 nM
18,CCc1cccc(Nc2nc(=O)c(OC)cn2Cc2ccccc2)c1CC [Compound I-0136],< 10 nM
19,COc1cn(Cc2cc(F)cc(F)c2)c(Nc2ccc(OC(C)C)cc2C)nc1=O [Compound I-0531],10 to 100 nM
20,COc1cn(Cc2ccccc2)c(Nc2ccccc2C)nc1=O [Compound I-0061],500 to 1000 nM
21,COc1cn(Cc2ccccc2OC(F)F)c(Nc2cccc(Cl)c2C)nc1=O [Compound I-0462],10 to 100 nM
22,CCc1cc(OC)c(OC)cc1Nc1nc(=O)c(Cl)cn1Cc1ccccc1 [Compound I-0351],< 10 nM
23,COc1cn(Cc2ccccc2)c(Nc2cccc(SC)c2C)nc1=O [Compound I-0429],< 10 nM
24,COc1cn(Cc2ccc(F)c(Cl)c2)c(Nc2cc(C)cc(C)c2C)nc1=O [Compound I-0502],10 to 100 nM
25,COc1cn(Cc2ccccc2OC(F)F)c(Nc2cccc(Cl)c2C)nc1=O [Compound I-0446],< 10 nM
26,COc1ccc(Nc2nc(=O)c(OC)cn2Cc2ccccc2)c(C)c1 [Compound I-0147],10 to 100 nM
27,CCOc1cc(C)c(Nc2nc(=O)c(OC)cn2Cc2cccc(F)c2)cc1C [Compound I-0257],< 10 nM
28,Cc1ccc(N2CCCS2(=O)=O)cc1Nc1nc(=O)c(Cl)cn1Cc1ccccc1 [Compound I-0313],10 to 100 nM
29,COc1ccc(Nc2nc(=O)c(OC)cn2Cc2cccc(F)c2)c(C)c1 [Compound I-0249],< 10 nM

# Same assay, conditions: antagonistic activity for the human P2X7 receptor; read-out: IC50
row,Structure (SMILES),IC50
1,COc1cn(Cc2ccccc2)c(Nc2c(C)ccc(C)c2F)nc1=O [Compound I-0926],10 to 100 nM
2,COc1cnc(Nc2cccc(Cl)c2C)n(Cc2ccc(F)c(F)c2)c1=O [Compound I-0973],100 to 500 nM
3,COc1cn(Cc2cc(F)cc(F)c2)c(Nc2cc3c(cc2C)OCO3)nc1=O [Compound I-0741],10 to 100 nM
4,Cc1nc2cc(C)c(Nc3nc(=O)cc(C)n3Cc3cc(F)c(F)c(F)c3)cc2s1 [Compound I-1136],10 to 100 nM
5,Cc1c(Cl)cccc1Nc1nc(=O)c(F)cn1Cc1cc(F)c(F)c(F)c1 [Compound I-1219],< 10 nM
6,COc1cn(Cc2ccccc2)c(Nc2cc(-c3cccn(C)c3=O)ccc2C)nc1=O [Compound I-0587],10 to 100 nM
7,COc1cn(Cc2ccccc2)c(Nc2cc3c(cc2C)OC(F)(F)O3)nc1=O [Compound I-0711],100 to 500 nM
8,Cc1ccc(-c2ncco2)cc1Nc1nc(=O)c(Cl)cn1Cc1cc(F)cc(F)c1 [Compound I-0854],< 10 nM
9,CCc1ccc(OC)cc1Nc1nc(=O)c(OC)cn1Cc1cc(F)cc(Cl)c1 [Compound I-0657],10 to 100 nM
10,COc1cn(Cc2cc(F)cc(F)c2)c(Nc2cc(-c3ccc(C)o3)ccc2C)nc1=O [Compound I-0769],10 to 100 nM
11,COc1cn(Cc2ccc(F)c(Cl)c2)c(Nc2cc(C)c(OCC(F)(F)F)cc2C)nc1=O [Compound I-0807],10 to 100 nM
12,COc1cc(Nc2nc(=O)c(F)cn2Cc2cc(F)c(F)c(F)c2)c(C)nc1OC [Compound I-1235],< 10 nM
13,O=c1nc(Nc2cccc3c(O)cccc23)n(Cc2cc(F)c(F)c(F)c2)cc1F [Compound I-1105],< 10 nM
14,O=c1nc(Nc2cccc3[nH]ccc23)n(Cc2cc(F)cc(F)c2)cc1F [Compound I-1022],< 10 nM
15,COc1nc2ccc(Nc3nc(=O)c(OC)cn3Cc3ccc(F)c(Cl)c3)c(C)c2s1 [Compound I-0826],10 to 100 nM
16,COc1cn(Cc2cc(F)cc(F)c2)c(Nc2cc3c(cc2C)OCCO3)nc1=O [Compound I-0709],< 10 nM
17,COc1cn(Cc2cc(F)cc(Cl)c2)c(Nc2ccc(N3CCOCC3)cc2C)nc1=O [Compound I-0612],100 to 500 nM
18,COc1cn(Cc2ccc(F)c(Cl)c2)c(Nc2cc(Cl)cc3[nH]ccc23)nc1=O [Compound I-0819],10 to 100 nM
19,COc1cc(C)c(Nc2nc(=O)c(C#N)cn2Cc2ccc(F)c(F)c2)cc1C [Compound I-1160],< 10 nM
20,COc1cn(Cc2cc(F)cc(Cl)c2)c(Nc2cc(-c3cscn3)ccc2C)nc1=O [Compound I-0752],10 to 100 nM
21,COCc1cn(Cc2cc(F)c(F)c(F)c2)c(Nc2cc3sc(C)nc3cc2C)nc1=O [Compound I-1141],10 to 100 nM
22,COc1ccc(C)cc1Nc1nc(=O)c(OC)cn1Cc1cc(F)c(F)c(F)c1 [Compound I-0936],10 to 100 nM

row,Structure (SMILES),IC50
1,COc1cc(C)c(Nc2nc(=O)c(C)cn2Cc2cc(F)c(F)c(F)c2)cc1OC [Compound I-1153],< 10 nM
2,Cc1nc2cc(C)c(Nc3nc(=O)c(F)cn3Cc3cc(F)cc(F)c3)cc2s1 [Compound I-1009],< 10 nM
3,Cc1ccc(C)c(Nc2nc(=O)c(F)cn2Cc2cc(F)c(F)c(F)c2)c1 [Compound I-1194],< 10 nM
4,COc1cc(Nc2nc(=O)c(F)cn2Cc2cc(F)cc(F)c2)c(C)cc1Cl [Compound I-1005],< 10 nM
5,O=c1nc(Nc2cccc3c(O)cccc23)n(Cc2cc(F)cc(F)c2)cc1F [Compound I-1114],< 10 nM
6,CCc1cc(OC)c(OC)cc1Nc1nc(=O)c(F)cn1Cc1cc(F)c(F)c(F)c1 [Compound I-1220],< 10 nM
7,Cc1cc2cc(Nc3nc(=O)c(F)cn3Cc3cc(F)cc(F)c3)c(C)cc2[nH]1 [Compound I-1057],10 to 100 nM
8,COc1cn(Cc2cc(F)c(F)c(F)c2)c(Nc2cc(OC(F)F)c(C)cc2C)nc1=O [Compound I-0805],< 10 nM
9,COc1ccc(Nc2nc(=O)c(F)cn2Cc2cc(F)c(F)c(F)c2)c(Cl)c1 [Compound I-1186],< 10 nM
10,COc1cc(C)c(Nc2nc(=NC#N)c(F)cn2Cc2cc(F)c(F)c(F)c2)cc1OC [Compound I-1288],10 to 100 nM
11,COc1cn(Cc2ccc(C(F)(F)F)c(F)c2)c(Nc2cccc(Cl)c2C)nc1=O [Compound I-0634],100 to 500 nM
12,Cc1cc(OC(F)F)c(C)cc1Nc1nc(=O)c(Cl)cn1Cc1cc(F)cc(F)c1 [Compound I-0839],< 10 nM
13,Cc1cc2c(cc1Nc1nc(=O)c(F)cn1Cc1ccc(F)c(Cl)c1)CCO2 [Compound I-1073],< 10 nM
14,CCOC(=O)c1cn(Cc2cc(F)c(F)c(F)c2)c(Nc2ccc(OC(F)F)cc2C)nc1=O [Compound I-1121],100 to 500 nM
15,CCc1ccc(Cl)cc1Nc1nc(=O)c(F)cn1Cc1cc(F)c(F)c(F)c1 [Compound I-1190],< 10 nM
16,Cc1nc2ccc(Nc3nc(=O)c(F)cn3Cc3cc(F)c(F)c(F)c3)c(C)c2s1 [Compound I-1199],< 10 nM
17,Cc1ccc(F)cc1Nc1nc(=O)c(CO)nn1Cc1cc(F)c(F)c(F)c1 [Compound I-1253],10 to 100 nM
18,Cc1ccc(C)c(Nc2nc(=N)c(F)cn2Cc2cc(F)c(F)c(F)c2)c1 [Compound I-1294],10 to 100 nM
19,COc1ccc(C)c(Nc2nc(=O)c(F)cn2Cc2ccc(F)c(Cl)c2)c1 [Compound I-1067],< 10 nM
20,COc1cn(Cc2cc(F)cc(F)c2)c(Nc2cc(-c3nnco3)ccc2C)nc1=O [Compound I-0599],10 to 100 nM
21,COc1ccc(C)c(Nc2cc(=O)c(OC)cn2Cc2ccccc2)c1 [Compound I-0952],100 to 500 nM

# — patent US10774051B2, “6-membered heterocyclic derivatives and pharmaceutical composition comprising the same” (Shionogi & Co., Ltd., priority 2015, dated 2020)
